According to patent US5663197A, “2-(1-hydroxyethyl)-5-hydroxynaphtho[2,3-b]furan-4,9-dione and antitumor agents comprising this compound” (priority 1992, dated 1997):
In brackets after ≈: the same amount, converted by molar mass.

Tests used:
[1] = system: Human ovarian carcinoma TYK-nu cells; assay: In vitro antitumor test (trypan blue exclusion viable cell count), TYK-nu; assay type: cell-based
Procedure: (§1) An appropriate amount of NFD was dissolved in DMSO to give a 1.0 mg/ml stock solution, which was diluted as necessary before use.
(§2) The following cells in the late logarithmic phase were harvested after treatment with trypsin (containing 0.25% trypsin and 0.02% EDTA; 37° C., 3 min) and used in the test: human lung adenocarcinoma cell lines A-549, VMRC-LCD and SK-LU-1, human lung squamous cell carcinoma Calu-1 cells, human colon adenocarcinoma WiDr cells, human prostate cancer LNCaP cells, human vaginal squamous cell carcinoma A-431 cells, human cervical carcinoma HeLa cells, human cholangiocarcinoma HuCC-T1 cells, mouse skin cancer melanoma B16 (M4) cells, human pancreatic carcinoma ASPC-1 cells, human neuroblastoma IMR-132 cells, human lung small cell carcinoma SCCH-194 cells, human uninary bladder carcinoma T24 cells, human renal cell carcinoma […] cells, human gastric cancer NUGC-2 cells, human thyroid carcinoma 8305C cells, human hepatoma HUH-7 cells, human ovarian carcinoma TYK-nu cells and human chorio carcinoma BeWo cells. Suspension cultures of human breast cancer MRK-nu-1 cells, human malignant B-cell lymphoma cells and human chronic myelogenous leukemia K562 cells were used to harvest the cells to be used in the test. […] These cells were plated onto a 96-well microplate at a density of 5-10×10^3 cells/cm^2 using DMEM or RPMI-1640 medium containing 10% fetal bovine serum and cultured for 24 hours in a conventional manner, after which a pre-determined amount of NFD dissolved in DMSO was added to each well. Cultivation was continued, and the number of viable cells was counted after 24, 48 and 72 hours. […]
(§3) Growth inhibitory action and lethal activity of NFD on various types of malignant tumor cells and normal human cells listed above were evaluated by counting the number of viable cells in each well of the 96-well microplate. […]

[2] = system: Human breast cancer MRK-nu-1 cells; assay: In vitro antitumor test (trypan blue exclusion viable cell count), MRK-nu-1; assay type: cell-based
Procedure: as §1
as §2, with “cells.” for “cells. Suspension cultures of human breast cancer MRK-nu-1 cells, human malignant B-cell lymphoma cells and human chronic myelogenous leukemia K562 cells were used to harvest the cells to be used in the test.”, “well.” for “well. Cultivation was continued, and the number of viable cells was counted after 24, 48 and 72 hours.”

[3] = system: Normal human peripheral blood lymphocytes; assay: In vitro growth test on normal cells, peripheral blood lymphocytes; assay type: cell-based
Procedure: as §1
as §2, with “cells.” for “cells. Suspension cultures of human breast cancer MRK-nu-1 cells, human malignant B-cell lymphoma cells and human chronic myelogenous leukemia K562 cells were used to harvest the cells to be used in the test.”, “well.” for “well. Cultivation was continued, and the number of viable cells was counted after 24, 48 and 72 hours.”

[4] = system: Human gastric cancer NUGC-2 cells; assay: In vitro antitumor test (trypan blue exclusion viable cell count), NUGC-2; assay type: cell-based
Procedure: as §1
as §2, with “cells.” for “cells. Suspension cultures of human breast cancer MRK-nu-1 cells, human malignant B-cell lymphoma cells and human chronic myelogenous leukemia K562 cells were used to harvest the cells to be used in the test.”, “well.” for “well. Cultivation was continued, and the number of viable cells was counted after 24, 48 and 72 hours.”

[5] = system: Human cervical carcinoma HeLa cells; assay: In vitro antitumor test (trypan blue exclusion viable cell count), HeLa; assay type: cell-based
Procedure: as §1
as §2, with “cells.” for “cells. Suspension cultures of human breast cancer MRK-nu-1 cells, human malignant B-cell lymphoma cells and human chronic myelogenous leukemia K562 cells were used to harvest the cells to be used in the test.”, “well.” for “well. Cultivation was continued, and the number of viable cells was counted after 24, 48 and 72 hours.”

[6] = system: Human chorio carcinoma BeWo cells; assay: In vitro antitumor test (trypan blue exclusion viable cell count), BeWo; assay type: cell-based
Procedure: as §1
as §2, with “cells.” for “cells. Suspension cultures of human breast cancer MRK-nu-1 cells, human malignant B-cell lymphoma cells and human chronic myelogenous leukemia K562 cells were used to harvest the cells to be used in the test.”, “well.” for “well. Cultivation was continued, and the number of viable cells was counted after 24, 48 and 72 hours.”

[7] = system: Human lung adenocarcinoma A-549 cells; assay: In vitro antitumor test (trypan blue exclusion viable cell count), A-549; assay type: cell-based; conditions: A549, 72 h, three days exposure, read-out: LD50 (IC50), 50% growth-inhibitory dose
Procedure: as §1
as §2, with “cells.” for “cells. Suspension cultures of human breast cancer MRK-nu-1 cells, human malignant B-cell lymphoma cells and human chronic myelogenous leukemia K562 cells were used to harvest the cells to be used in the test.”, “well.” for “well. Cultivation was continued, and the number of viable cells was counted after 24, 48 and 72 hours.”

[8] = system: malignant tumor cells; assay: In vitro antitumor test, panel of malignant tumor cells; assay type: cell-based, human and mouse
Procedure: as §1
The antitumor effect of NFD on human cancer cells and mouse cancer cells was assessed according to the following methods.
as §2, §3

[9] = Solubility; assay type: physicochemical
[10] = system: Normal human renal cells; assay: In vitro growth test on normal cells, renal cells; assay type: cell-based
Procedure: as §1, §2, §3

[11] = 72 h, three days exposure, read-out: LD50 (IC50), 50% growth-inhibitory dose

CC(O)c1cc2c(o1)C(=O)c1cccc(O)c1C2=O (centres unmarked) [NFD, 2-(1-hydroxyethyl)-5-hydroxynaphtho[2,3-b]furan-4,9-dione]
concentration causing necrosis in almost all tumor cells ([1]; FIG. 22): ≥ 40 ng/mL | IC50 ([1]; Homo sapiens, 72 h, TYK-nu, three days exposure, read-out: LD50 (IC50), 50% growth-inhibitory dose): 0.017 µg/mL (≈ 0.0658 µM) | IC (almost complete) ([1]; Homo sapiens, FIG. 22, read-out: concentration inhibiting growth almost completely): 0.02 µg/mL | IC50 [2, 11]: 0.012 µg/mL (≈ 0.0465 µM) | IC (almost complete) ([2]; FIG. 20, read-out: concentration inhibiting growth almost completely): 0.033 µg/mL | adverse effects on growth of normal cells ([3]; FIG. 26, at concentrations which cause necrosis in tumor cells): no adverse effects | IC50 ([3]; Homo sapiens, Lymphocyte, 72 h, normal peripheral blood lymphocytes, three days exposure, read-out: LD50 (IC50), 50% growth-inhibitory dose): 0.084 µg/mL (≈ 0.325 µM) | IC50 ([4]; 72 h, NUGC-2, three days exposure, read-out: LD50 (IC50), 50% growth-inhibitory dose): 0.017 µg/mL (≈ 0.0658 µM) | IC (almost complete) ([4]; FIG. 18, read-out: concentration inhibiting cells almost completely): 0.033 µg/mL | IC50 [5, 11]: 0.018 µg/mL (≈ 0.0697 µM) | IC (almost complete) ([5]; FIG. 8, read-out: concentration inhibiting growth almost completely): 0.0224 µg/mL | IC50 [6, 11]: 0.018 µg/mL (≈ 0.0697 µM) | IC (almost complete) ([6]; FIG. 23, read-out: concentration inhibiting growth almost completely): 0.0343 µg/mL | IC50 [7]: 0.0095 µg/mL (≈ 0.0368 µM) | selective toxicity to tumor cells ([8]; 23 listed tumor cells): exhibits selective toxicity | growth inhibition of tumor cells ([8]; at low concentrations, 23 listed tumor cells): remarkably inhibits the growth | IC50 ([8]; read-out: LD50 (IC50) range over malignant tumor cells): 0.0055 to 0.025 µg/mL (≈ 0.0213 to 0.0968 µM) | solubility in chloroform ([9]; chloroform): freely soluble | solubility in dimethylsulfoxide ([9]; dimethylsulfoxide): freely soluble | solubility in water ([9]; water): slightly soluble | adverse effects on growth of normal cells ([10]; FIG. 27, at concentrations which cause necrosis in tumor cells): no adverse effects | concentration inhibiting growth of normal renal cells ([10]; FIG. 27, only at higher concentration): 100 ng/mL | IC50 ([10]; Homo sapiens, 72 h, normal renal cells, three days exposure, read-out: LD50 (IC50), 50% growth-inhibitory dose): 0.065 µg/mL (≈ 0.252 µM)
